Results published in patent US5077204A, “Yeast endopeptidase for basic amino-acid site cleavage, preparation and use” (Chiron Corporation, priority 1988, dated 1991).
Peptide text beside a SMILES is read from it. * marks the point of attachment. AMC = Cc1cc(=O)oc2cc(N*)ccc12; βNA = c1ccc2cc(N*)ccc2c1; Cbz = O=C(OCc1ccccc1)*; Boc = CC(C)(C)OC(=O)*

Columns and labels:
Type in all cases: biochemical, S. cerevisiae
[1] = target: T1, KEX2 endopeptidase (kex2::pJ2B membranes) (Saccharomyces cerevisiae, UniProt P13134); assay: Endopeptidase activity in membranes from kex2 cells containing pJ2B in integrated form; details: for Relative Ratio: kex2::pJ2B relative to kex2[YEp24] = [1.0]
T1 construct: not only includes the KEX2 gene, but also the necessary transcriptional and translational regulatory signals for expression in yeast; expressed in transfected cells; host or cells: S. cerevisiae XBH16-15A (MATalpha kex2-1) containing pJ2B in integrated form; crude membranes
Procedure: (§1) Permeabilization of whole yeast cells with the non-ionic detergent Brij 58, preparation of crude membrane fractions, and measurement of protein concentration were conducted by the methods described previously (Julius et al., 1983, supra), incorporated herein by reference. To measure peptidase activity, samples of permeabilized cells or membrane material were added to a reaction mixture containing 0.1-0.5 mM fluorogenic peptide substrate (added from a 20 mM stock dissolved in DMSO) and 200 mM HEPES-Tris (pH 7.0), in a final volume of 0.4 ml. Following incubation for 30 min at 37° C., whole cells were removed by centrifugation in a microfuge (Eppendorf) and membrane material was removed by Ba(OH)2 -ZnSO4 precipitation. The amount of fluorescence formed in the supernatant solution was determined in a fluorescence spectrophotometer (Perkin-Elmer, Model MPF-44B), set either at an excitation wavelength of 335 nm and an emission wavelength of 410 nm (for measurement of β-naphthylamine) or at an excitation wavelength of 380 nm and an emission wavelength of 460 nm (for measurement of 7-amino-4-methyl-coumarin, AMC). To determine the number of moles of substrate hydrolyzed, the fluorescence yield of samples was compared to a standard curve prepared with known concentrations of authentic AMC dissolved in the same buffer.
(§2) Cells of strain XBH1615A that had been transformed with the plasmids
(§3) indicated, or that contained pJ2B in integrated form, were grown in SCUra
(§4) and membranes were prepared as described in the Experimental.
(§5) Endopeptidase activity was assayed as described in the Experimental. All
(§6) substrates tested were present at 0.1 mM.
(§7) Endopeptidase activity was assayed using Boc--GlnArgArg--MCA as the
(§8) substrate, as outlined in the Experimental. All inhibitors were added fro
(§9) a 0.1 M stock dissolved in dimethyl sulfoxide. All values given were
(§10) corrected for the slight effects of addition of this solvent alone.

[2] = target: T2, KEX2 endopeptidase (kex2[YEp24-pJ2B] membranes) (Saccharomyces cerevisiae, UniProt P13134); assay: Endopeptidase activity in membranes from kex2 cells carrying multicopy plasmid pJ2B (over-produced specific endopeptidase); details: for Relative Ratio: kex2[YEp24-pJ2B] relative to kex2[YEp24] = [1.0]; for Rate of hydrolysis, membranes from kex2 cells carrying pJ2B versus membranes from kex2 cells carrying YEp24: membrane fractions, depending on the experiment
T2 construct: not only includes the KEX2 gene, but also the necessary transcriptional and translational regulatory signals for expression in yeast; expressed in transfected cells; host or cells: S. cerevisiae XBH16-15A (MATalpha kex2-1) carrying YEp24-pJ2B
T2 sequence (P13134 114-814): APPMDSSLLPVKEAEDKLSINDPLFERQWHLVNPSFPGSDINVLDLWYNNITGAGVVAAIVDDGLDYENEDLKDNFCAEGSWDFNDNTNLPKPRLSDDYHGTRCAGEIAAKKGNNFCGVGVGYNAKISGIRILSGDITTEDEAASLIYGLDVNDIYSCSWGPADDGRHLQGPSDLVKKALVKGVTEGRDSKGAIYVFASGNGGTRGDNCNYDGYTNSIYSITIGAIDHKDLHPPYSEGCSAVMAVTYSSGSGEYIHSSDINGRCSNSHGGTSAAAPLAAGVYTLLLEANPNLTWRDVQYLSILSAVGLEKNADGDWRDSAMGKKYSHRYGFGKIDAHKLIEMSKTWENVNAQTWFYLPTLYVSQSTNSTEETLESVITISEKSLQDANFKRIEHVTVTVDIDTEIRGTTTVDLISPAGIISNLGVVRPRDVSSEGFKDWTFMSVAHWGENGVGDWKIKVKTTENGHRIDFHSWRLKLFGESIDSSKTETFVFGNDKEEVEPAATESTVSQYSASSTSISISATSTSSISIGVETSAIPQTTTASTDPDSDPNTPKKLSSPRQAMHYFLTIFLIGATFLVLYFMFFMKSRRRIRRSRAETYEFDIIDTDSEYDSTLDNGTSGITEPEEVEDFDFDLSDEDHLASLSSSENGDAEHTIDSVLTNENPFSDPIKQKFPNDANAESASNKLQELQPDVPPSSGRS
Procedure: as §1, §2, §3, §4, §5, §6, §7, §8
a 0.1 M stock dissolved in dimethyl sulfoxide.

[3] = system: background activity in membranes of kex2[YEp24] cells; assay: Endopeptidase activity in membranes from kex2 cells transformed with the vector YEp24 alone (background activity)
Procedure: as §1, §2, §3, §4, §5, §6, §7, §8, §9, §10

[4] = target: T3, KEX2 endopeptidase (Brij 58-permeabilized kex2 cells carrying pJ2B) (Saccharomyces cerevisiae, UniProt P13134); assay: Peptidase activity in detergent-permeabilized kex2 cells carrying pJ2B; details: for Rate of hydrolysis, kex2 cells carrying pJ2B versus kex2 cells harboring the vector alone: detergent-permeabilized cells; for Rate of hydrolysis relative to the lysine-containing substrate (Boc-GluLysLys-MCA), times faster: detergent-permeabilized kex2 cells carrying pJ2B
T3 construct: not only includes the KEX2 gene, but also the necessary transcriptional and translational regulatory signals for expression in yeast; expressed in transfected cells; host or cells: S. cerevisiae XBH16-15A (MATalpha kex2-1) carrying YEp24-pJ2B
Procedure: as §1

[5] = target: T4, KEX2 endopeptidase (lysate of XBH16-15A carrying YEp24-pJ2B) (Saccharomyces cerevisiae, UniProt P13134); assay: Release of endopeptidase activity from membranes by detergent treatment
T4 construct: not only includes the KEX2 gene, but also the necessary transcriptional and translational regulatory signals for expression in yeast; expressed in transfected cells; host or cells: S. cerevisiae XBH16-15A (MATalpha kex2-1) carrying YEp24-pJ2B
Procedure: as §1
Strain XBH1615A carrying the KEX2 gene on a multicopy plasmid (YEp24pJ2B)
was grown to midexponential phase in SCUra. The cells were collected by
centrifugation and a lysate was prepared as described in the Experimental
The lysate was divided into two equal portions, one of which was treated
with the nonionic detergent Triton X100 at a final concentration of 1%.
Samples of both the original lysate and the detergenttreated lysate were
saved and the remainder of each was separated into a crude membrane
fraction (P100) and a soluble fraction (S100) by centrifugation at 100,00
× g for 1 hr for endopeptidase activity using
Boc--GlnArgArg--MCA as the substrate, as given in the Experimental.

[6] = strain kex2::pJ2B, substrate 0.1 mM, membranes
[7] = strain kex2[YEp24-pJ2B], substrate 0.1 mM, membranes
[8] = strain kex2[YEp24], substrate 0.1 mM, membranes
[9] = kex2::pJ2B, Triton X-100 1% + 5 mM TPCK, substrate Boc-GlnArgArg-MCA
[10] = kex2::pJ2B, Triton X-100 1%, substrate Boc-GlnArgArg-MCA
[11] = +1% Triton X-100, P100 crude membrane fraction
[12] = +1% Triton X-100, S100 soluble fraction
[13] = kex2[YEp24-pJ2B], Triton X-100 1% + 5 mM TPCK, substrate Boc-GlnArgArg-MCA
[14] = kex2[YEp24-pJ2B], Triton X-100 1%, substrate Boc-GlnArgArg-MCA
[15] = kex2[YEp24], Triton X-100 1% + 5 mM TPCK, substrate Boc-GlnArgArg-MCA
[16] = kex2[YEp24], Triton X-100 1%, substrate Boc-GlnArgArg-MCA

Compound: Cc1cc(=O)oc2cc(NC(=O)[C@H](CCCNC(=N)N)NC(=O)[C@H](CCCNC(=N)N)NC(=O)[C@H](CCC(N)=O)NC(=O)OC(C)(C)C)ccc12 [Boc--GlnArgArg--MCA, Boc-GlnArgArg-7-amino-4-methyl-coumarin] (Boc-Gln-Arg-Arg-{AMC})
- Relative Ratio ([1]; substrate 0.1 mM): 3.3
- Specific Activity [1, 6]: 16.7 pmoles AMC formed/μg protein 10
- Relative Ratio ([2]; substrate 0.1 mM): 20.2
- Rate of hydrolysis, membranes from kex2 cells carrying pJ2B versus membranes from kex2 cells carrying YEp24 [2]: 20- to 35 fold
- Specific Activity [2, 7]: 100.8 pmoles AMC formed/μg protein 10
- Specific Activity [3, 8]: 5.0 pmoles AMC formed/μg protein 10
- Rate of hydrolysis, kex2 cells carrying pJ2B versus kex2 cells harboring the vector alone [4]: six- to ninefold greater
- Rate of hydrolysis relative to the lysine-containing substrate (Boc-GluLysLys-MCA), times faster [4]: ~30 times

Compound: Cc1cc(=O)oc2cc(NC(=O)[C@H](CCCCN)NC(=O)[C@H](CCCCN)NC(=O)[C@H](CCC(=O)O)NC(=O)OC(C)(C)C)ccc12 [Boc--GluLysLys--MCA, Boc-GluLysLys-MCA] (Boc-Glu-Lys-Lys-{AMC})
- Relative Ratio ([1]; substrate 0.1 mM): 1.7
- Specific Activity [1, 6]: 0.5 pmoles AMC formed/μg protein 10
- Relative Ratio ([2]; substrate 0.1 mM): 6.3
- Rate of hydrolysis relative to Boc-GlnArgArg-MCA, times more slowly ([2]; membrane fractions of kex2 cells carrying pJ2B): about 50 times
- Rate of hydrolysis, membranes from kex2 cells carrying pJ2B versus membranes from kex2 cells carrying YEp24 [2]: about six-fold
- Specific Activity [2, 7]: 1.9 pmoles AMC formed/μg protein 10
- Specific Activity [3, 8]: 0.3 pmoles AMC formed/μg protein 10
- Rate of hydrolysis, kex2 cells carrying pJ2B versus kex2 cells harboring the vector alone [4]: six- to ninefold greater

Compound: C[C@H](NC(=O)OCc1ccccc1)C(=O)N[C@@H](CCCNC(=N)N)C(=O)N[C@@H](CCCNC(=N)N)C(=O)Nc1ccc2ccccc2c1 [CBZ-AlaArgArg-β-naphthylamide] (Cbz-Ala-Arg-Arg-βNA)
- Rate of hydrolysis, kex2 cells carrying pJ2B versus kex2 cells harboring the vector alone [4]: six- to ninefold greater
- Rate of hydrolysis relative to the lysine-containing substrate (Boc-GluLysLys-MCA), times faster [4]: ~30 times

Compound: Triton X-100
- Relative Ratio ([1]; Triton X-100 1% + 5 mM TPCK): 9.4
- Inhibition [1, 9]: 34%
- Specific Activity [1, 9]: 11.4 pmoles/μg/10 min
- Inhibition [1, 10]: 26%
- Specific Activity [1, 10]: 12.9 pmoles/μg/10 min
- % of Recovery ([5]; +1% Triton X-100, P100 + S100): 94%
- % of Total [5, 11]: 19%
- Specific Activity [5, 11]: 50.0 pmoles/μg/10 min
- % of Total [5, 12]: 75%
- Specific Activity [5, 12]: 200.0 pmoles/μg/10 min
- Specific Activity ([5]; +1% Triton X-100, whole lysate, substrate Boc-GlnArgArg-MCA): 265.0 pmoles/μg/10 min
- Solubilization of the specific KEX2 endopeptidase from membranes ([5]; Triton X-100 at final concentration of 1%): readily solubilized from membranes
- Relative Ratio ([2]; Triton X-100 1% + 5 mM TPCK): 127.4
- Inhibition [2, 13]: 0%
- Specific Activity [2, 13]: 152.9 pmoles/μg/10 min
- Inhibition [2, 14]: 0%
- Specific Activity [2, 14]: 155.0 pmoles/μg/10 min
- Susceptibility of the specific KEX2 endopeptidase to inhibition or inactivation ([2]; kex2 cells transformed with plasmid pJ2B, comparisons are to the background activity): slightly activated
- Inhibition [3, 15]: 76%
- Specific Activity [3, 15]: 1.2 pmoles/μg/10 min
- Inhibition [3, 16]: 71%
- Specific Activity [3, 16]: 1.5 pmoles/μg/10 min
- Susceptibility of the background activity to inhibition ([3]; kex2 cells transformed with YEp24 alone): greatly reduced
